From patent publication US9290476B2, “Methylene linked quinolinyl modulators of RORγt” (Janssen Pharmaceutica NV, priority 2012, dated 2016)
Counter-ions that a name gives are not always drawn. Like-named read-outs stand apart in the source and are kept apart here.

Key:
[1] = molecular target: human RORγt ligand binding domain (RORγt LBD) (Homo sapiens (Human), UniProt P51449); assay: RORγt ThermoFluor assay (thermal shift binding affinity); conditions: estimated from thermal shift
How it was run: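 Thermal shift used 0.065 mg/mL RORγt LBD with 60 μM 1,8-ANS in 100 mM Hepes pH 7.0, 10 mM NaCl, 2.5 mM GSH and 0.002% Tween-20, heated at 1 °C/min. Fluorescence was excited at 380–400 nm and emission read at 500 nm.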

[2] = system: IL-17 production by CD4 T cells; assay: Human Th17 assay (IL-17 production by CD4 T cells under Th17 differentiation); format: cell-based; conditions: human CD4+ T cells, IL-17 after 3 days, read-out: Human Th17 Assay, IC50 μM
Description: The human Th17 assay tests the effect of RORγt modulatory compounds on IL-17 production by CD4 T cells under conditions which favor Th17 differentiation.
Total CD4^+ T cells were isolated from the peripheral blood mononuclear cells (PBMC) of healthy donors using a CD4^+ T cell isolation kit II, following the manufacturer's instructions (Miltenyi Biotec). Cells were resuspended in a medium of RPMI-1640 supplemented with 10% fetal bovine serum, penicillin, streptomycin, glutamate, and β-mercaptoethanol and were added to 96-well plates at 1.5×10^5 per 100 μL per well. 50 μL of compound at titrated concentrations in DMSO were added into each well at final DMSO concentration at 0.2%. Cells were incubated for 1 hour, then 50 μL of Th17 cell differentiation medium was added to each well. The final concentrations of antibodies and cytokines (R&D Systems) in differentiation medium were: 3×10^6/mL anti-CD3/CD28 beads (prepared using human T cell activation/expansion kit, Miltenyi Biotec), 10 μg/mL anti-IL4, 10 μg/mL anti-IFNγ, 10 ng/mL IL1β, 10 ng/mL IL23, 50 ng/mL IL6, 3 ng/mL TGFβ and 20 U/mL IL2. Cells were cultured at 37° C. and 5% CO2 for 3 days. Supernatants were collected and the accumulated IL-17 in culture was measured by using MULTI-SPOT® Cytokine Plate following manufacture's instruction (Meso Scale Discovery). The plate was read using Sector Imager 6000, and IL-17 concentration was extrapolated from the standard curve. The IC50s were determined by GraphPad.

[3] = molecular target: human RORγt LBD (Homo sapiens (Human), UniProt P51449); assay: RORγt reporter assay (GAL4-RORγt LBD luciferase in HEK293T cells); format: cell-based; conditions: for IC50 / RORγt reporter Assay, % inhibition @ 6 μM: HEK293T cells; for IC50: 24 hours compound treatment; for inhibition at 6 µM: HEK-293T, read-out: RORγt reporter Assay, % inhibition @ 6 μM, HEK293T cells, 6 μM
human RORγt LBD, sequence (P51449 258-518): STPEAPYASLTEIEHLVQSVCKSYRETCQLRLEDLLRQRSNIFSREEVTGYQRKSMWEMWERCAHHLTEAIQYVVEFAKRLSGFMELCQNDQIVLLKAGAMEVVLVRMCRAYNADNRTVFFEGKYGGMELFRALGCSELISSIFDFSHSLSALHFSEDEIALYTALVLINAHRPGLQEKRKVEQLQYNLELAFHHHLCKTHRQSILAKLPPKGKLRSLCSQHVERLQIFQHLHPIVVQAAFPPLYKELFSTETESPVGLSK
How it was run: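 HEK293T cells transiently co-transfected with GAL4-DBD–wild-type human RORγt LBD (pBIND) and GAL4-responsive firefly luciferase reporter (pGL4.31); renilla luciferase from pBIND normalises transfection/viability. Cells in phenol-red-free DMEM, 5% lipid-reduced FCS, treated with compound 24 h. Firefly/renilla ratio plotted against compound concentration.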

human RORγt ligand binding domain (RORγt LBD), sequence (P51449 other isoform, or with tags, fused parts or gaps): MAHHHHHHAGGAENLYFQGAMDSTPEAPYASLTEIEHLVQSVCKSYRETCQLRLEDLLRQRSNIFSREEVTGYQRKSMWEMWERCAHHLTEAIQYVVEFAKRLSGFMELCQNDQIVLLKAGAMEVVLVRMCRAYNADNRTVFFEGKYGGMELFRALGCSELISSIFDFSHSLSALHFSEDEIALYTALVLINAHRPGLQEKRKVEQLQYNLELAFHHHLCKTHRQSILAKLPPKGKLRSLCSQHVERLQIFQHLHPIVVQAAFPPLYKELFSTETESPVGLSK

SMILES	Kd [1] [µM]	IC50 [2] [µM]	IC50 [3] [µM]	inhibition at 6 µM [3] [%]	IC50 ([2]; Homo sapiens, CD4+ T, 72 h) [µM]	RORγt reporter Assay, % inhibition @ 6 μM [3] [%]
CON(C)c1nc2ccc(C(O)(c3ccc(C(F)(F)F)nc3)c3cncn3C)cc2c(Cl)c1Cc1ccc(-n2cccn2)cc1 (single isomer, unassigned) [Example 67B, (3-(4-(1H-pyrazol-1-yl)benzyl)-4-chloro-2-(methoxy(methyl)amino)quinolin-6-yl)(1-methyl-1H-imidazol-5-yl)(6-(trifluoromethyl)pyridin-3-yl)methanol]	0.0063	0.01	0.035	101		
COc1nc2c(C)cc(C(O)(c3ccc(C(F)(F)F)nc3)c3cncn3C)cc2c(Cl)c1Cc1ccc(-n2cccn2)cc1 (single isomer, unassigned) [Example 29B, (3-(4-(1H-pyrazol-1-yl)benzyl)-4-chloro-2-methoxy-8-methylquinolin-6-yl)(1-methyl-1H-imidazol-5-yl)(6-(trifluoromethyl)pyridin-3-yl)methanol]	0.093	0.19	0.13	102		
COc1nc2ccc(C(O)(c3ccc(C)nc3C)c3cnnn3C)cc2c(Cl)c1Cc1ccc(C(F)(F)F)cc1 (single isomer, unassigned) [Example 77B, (4-chloro-2-methoxy-3-(4-(trifluoromethyl)benzyl)quinolin-6-yl)(2,6-dimethylpyridin-3-yl)(1-methyl-1H-1,2,3-triazol-5-yl)methanol]		0.36		98		
Cn1cncc1C(O)(c1ccc(C(F)(F)F)nc1)c1ccc2nc(C#N)c(Cc3ccc(-n4cccn4)cc3)c(C#N)c2c1 (stereo not drawn) [Example 72B, 3-(4-(1H-Pyrazol-1-yl)benzyl)-6-(hydroxy(1-methyl-1H-imidazol-5-yl)(6-(trifluoromethyl)pyridin-3-yl)methyl)quinoline-2,4-dicarbonitrile]				99	0.025	
Cn1cncc1C(O)(c1ccc(C(F)(F)F)nc1)c1ccc2nc(C#N)c(Cc3ccc(-n4cccn4)cc3)c(C#N)c2c1 (single isomer, unassigned) [Example 72C, 3-(4-(1H-Pyrazol-1-yl)benzyl)-6-(hydroxy(1-methyl-1H-imidazol-5-yl)(6-(trifluoromethyl)pyridin-3-yl)methyl)quinoline-2,4-dicarbonitrile]				100	0.055	
CCN(CC)c1nc2ccc(C(O)(c3ccc(C(F)(F)F)nc3)c3cncn3C)cc2c(C#N)c1Cc1ccc(-n2cccn2)cc1 (single isomer, unassigned) [Example 74B, 3-(4-(1H-Pyrazol-1-yl)benzyl)-2-(diethylamino)-6-(hydroxy(1-methyl-1H-imidazol-5-yl)(6-(trifluoromethyl)pyridin-3-yl)methyl)quinoline-4-carbonitrile]	1.3		0.17	95	0.091	
COc1nc2ccc(C(O)(c3cnnn3C)C3CN(C(C)=O)C3)cc2c(Cl)c1Cc1ccc(C(F)(F)F)cc1 (single isomer, unassigned) [Example 97B, 1-(3-((4-Chloro-2-methoxy-3-(4-(trifluoromethyl)benzyl)quinolin-6-yl)(hydroxy)(1-methyl-1H-1,2,3-triazol-5-yl)methyl)azetidin-1-yl)ethanone]	0.0014	0.0034	0.0059	98		
Cc1cc(C(O)(c2ccc(Cl)cc2)c2cncn2C)cc2c(Cl)c(Cc3ccc(-n4cccn4)cc3)c(Cl)nc12 (stereo not drawn) [Example 27, (3-(4-(1H-Pyrazol-1-yl)benzyl)-2,4-dichloro-8-methylquinolin-6-yl)(4-chlorophenyl)(1-methyl-1H-imidazol-5-yl)methanol.TFA salt]		0.3	0.29			97
CCc1nc2ccc(C(O)(c3cnnn3C)C3CN(S(C)(=O)=O)C3)cc2c(Cl)c1Cc1ccc(C(F)(F)F)cc1 (single isomer, unassigned) [Example 91B, (4-Chloro-2-ethyl-3-(4-(trifluoromethyl)benzyl)quinolin-6-yl)(1-methyl-1H-1,2,3-triazol-5-yl)(1-(methylsulfonyl)azetidin-3-yl)methanol]		0.022		97		
Cn1cncc1C(O)(c1ccc2nc(Cl)c(Cc3ccc(-n4cccn4)cc3)c(Cl)c2c1)c1cncs1 (stereo not drawn) [Example 15, (3-(4-(1H-Pyrazol-1-yl)benzyl)-2,4-dichloroquinolin-6-yl)(1-methyl-1H-imidazol-5-yl)(thiazol-5-yl)methanol.TFA]			0.013	104	0.024	
COc1nc2ccc(C(O)(c3ccc(C)nc3C)c3cnnn3C)cc2c(Cl)c1Cc1ccc(C(F)(F)F)cc1 (single isomer, unassigned) [Example 77C, (4-chloro-2-methoxy-3-(4-(trifluoromethyl)benzyl)quinolin-6-yl)(2,6-dimethylpyridin-3-yl)(1-methyl-1H-1,2,3-triazol-5-yl)methanol]		0.0021				100
COc1nc2ccc(C(O)(c3cnnn3C)c3cnc(C)n3C)cc2c(Cl)c1Cc1ccc(C(F)(F)F)cc1 (single isomer, unassigned) [Example 80B, (4-chloro-2-methoxy-3-(4-(trifluoromethyl)benzyl)quinolin-6-yl)(1,2-dimethyl-1H-imidazol-5-yl)(1-methyl-1H-1,2,3-triazol-5-yl)methanol]		0.05		92		
COc1nc2ccc(C(O)(c3ccc(C)nc3C)c3cnnn3C)cc2c(C#N)c1Cc1ccc(C(F)(F)F)cc1 (single isomer, unassigned) [Example 78C, 6-((2,6-Dimethylpyridin-3-yl)(hydroxy)(1-methyl-1H-1,2,3-triazol-5-yl)methyl)-2-methoxy-3-(4-(trifluoromethyl)benzyl)quinoline-4-carbonitrile]					0.004	99
COc1nc2ccc(C(O)(c3cnnn3C)c3cnc(C)n3C)cc2c(Cl)c1Cc1ccc(C(F)(F)F)cc1 (single isomer, unassigned) [Example 80C, (4-chloro-2-methoxy-3-(4-(trifluoromethyl)benzyl)quinolin-6-yl)(1,2-dimethyl-1H-imidazol-5-yl)(1-methyl-1H-1,2,3-triazol-5-yl)methanol]		0.002				93
COc1nc2ccc(C(O)(c3ccc(Cl)cc3)c3cncn3C)cc2c(Cl)c1Cc1ccc(-n2cncn2)cc1 (single isomer, unassigned) [Example 64C, (3-(4-(1H-1,2,4-triazol-1-yl)benzyl)-4-chloro-2-methoxyquinolin-6-yl)(4-chlorophenyl)(1-methyl-1H-imidazol-5-yl)methanol]					0.086	94
CCc1nc2ccc(C(O)(c3cnnn3C)C3CN(S(C)(=O)=O)C3)cc2c(Cl)c1Cc1ccc(C(F)(F)F)cc1 (single isomer, unassigned) [Example 91C, (4-Chloro-2-ethyl-3-(4-(trifluoromethyl)benzyl)quinolin-6-yl)(1-methyl-1H-1,2,3-triazol-5-yl)(1-(methylsulfonyl)azetidin-3-yl)methanol]		0.0025				102
